Test results published in patent publication US5716963A, “Anthraquinonic derivatives having an antitumor activity and applications thereof” (Universidad Complutense De Madrid, priority 1994, dated 1998).
In brackets after ≈: the same amount, converted by molar mass.

How the values were obtained:
P-388 = test: IC50 growth inhibition, P-388 suspension culture; format: cell-based, DBA/2 mouse; conditions: Mus musculus, P388, 72 h, three days, 37° C., 10% CO2, approximate IC50, in duplicate
Method: (§1) Cell cultures: The cells were kept in logarithmic phase of growth in Eagle's Minimum Essential Medium, with Earle's Balanced Salts, with L-gluatamine 2.0 mM, with non-essential amino acids and without sodium bicarbonate (EMEM-NEAA); supplemented with Fetal Calf Serum (FCS) 10% sodium bicarbonate 10^-2 and with 0.1 g/l penicillin-G+-streptomycin sulfate.
(§2) To determine and to compare the antitumor activity of these compounds, a simple screening process was carried out using an adapted form of the method described by Bergeron et al. (1984) ((1) Raymond J. Bergeron, Paul F. Cavanaugh, Jr., Steven J. Kline, Robert G. Hughes, Jr., Gary T. Elliot and Carl W. Porter. Antineoplastic and antiherpetic activity of spermidine catecholamide iron chelators. Biochem. Bioph. Res. Comm. 1984, 121 (3), 848-854; (2) Alan C. Schroeder, Robert G. Hughes, Jr. and Alexander Bloch. Effects of Acyclic pyrimidine nucleoside analogues. J. Med. Chem. 1981, 24, 1078-1083). The antitumor cells used have been P-388 (culture in DBA/2 mouse lymphoid neoplasm suspension), A-549 (human lung carcinoma monolayer culture); HT-29 human colon carcinoma monolayer culture) and MEL (human melanoma monolayer culture).
The P-388 cells were seeded in 16 mm cups at 1×10^4 cells per cup in aliquots at 1 ml. MEM 5FCS that contains the indicated drug concentration. Separately, a batch of cultures without any drug was seeded as a growth control to ensure that the cells were kept in a logarithmic phase of growth. All the determinations were carried out in duplicate. After three days of incubation at 37° C., 10% CO2 in an atmosphere with 98% humidity, the approximate IC50 was determined by comparing the growth in the cups with the drug and the control cups.

A-549 = test: IC50 growth inhibition, A-549 monolayer culture (crystal violet); format: cell-based; conditions: Homo sapiens, A549, 72 h, three days, 37° C., 10% CO2, crystal violet 0.1%, approximate IC50, in duplicate
Method: as §1, §2
(§3) The A-549, HT-29 and MEL-28 cells were seeded in 16 mm cups at […] cells per cup in aliquots of […] of MEM 10FCS that contain the indicated drug concentration. Separately, a batch of cultures without any drug was seeded as a growth control to ensure that the cells were kept in a logarithmic phase of growth. All the determinations were carried out in duplicate. After three days of incubation at 37° C., 10% CO2 in an atmosphere with 98% humidity, the cups were stained with crystal violet 0.1%. The approximate IC50 was determined by comparing the growth in the cups with the drug and the growth in the control cups.

HT-29 = test: IC50 growth inhibition, HT-29 monolayer culture (crystal violet); format: cell-based; conditions: Homo sapiens, 72 h, three days, 37° C., 10% CO2, crystal violet 0.1%, approximate IC50, in duplicate
Method: as §1, §2, §3

MEL-28 = test: IC50 growth inhibition, MEL-28 monolayer culture (crystal violet); format: cell-based; conditions: Homo sapiens, SK-MEL-28, 72 h, three days, 37° C., 10% CO2, crystal violet 0.1%, approximate IC50, in duplicate
Method: as §1, §2, §3

Gram positive bacteria = conditions: cited from earlier work
thymidilate synthetase = conditions: cited from earlier work

SMILES	IC50 (A-549) [µg/mL]	IC50 (HT-29) [µg/mL]	IC50 (P-388) [µg/mL]	IC50 (MEL-28) [µg/mL]	activity against Gram positive bacteria (Gram positive bacteria)	capacity to inhibit thymidilate synthetase (thymidilate synthetase)
CC1C(F)=CNC2=C1C(=O)c1ccccc1C2=O (stereo not shown) [(I-k), 3-fluoro-4-methyl-1,4-dihydro-1-azaanthracen-9,10-dione]	0.25 (≈ 1.03 µM)	0.25 (≈ 1.03 µM)	0.25 (≈ 1.03 µM)	0.12 (≈ 0.493 µM)		
CCOc1nc2c(cc1C)C(=O)c1ccccc1C2=O [(I-b), 2-ethoxy-3-methyl-1-azaanthracen-9,10-dione]	0.25 (≈ 0.935 µM)	10 (≈ 37.4 µM)	5 (≈ 18.7 µM)	5 (≈ 18.7 µM)		
Cc1cc(=O)[nH]c2c1C(=O)C1=C(NC=CC1c1ccccc1[N+](=O)[O-])C2=O (stereo not shown) [(I-g), 4-methyl-5-(2-nitrophenyl)-5,8-dihydro-1H-1,8-diazaanthracen-2,9,10-trione]	0.05 (≈ 0.138 µM)	0.05 (≈ 0.138 µM)	0.5 (≈ 1.38 µM)	0.1 (≈ 0.275 µM)		
CC1=C(C)CC2C(=O)c3c(C)cc(=O)[nH]c3C(=O)C2C1 (stereo not shown) [(I-a), 4,6,7-trimethyl-5,8,8a,10a-tetrahydro-1H-1-azaathracen-2,9,10-trione]	0.25 (≈ 0.921 µM)	1 (≈ 3.69 µM)	1 (≈ 3.69 µM)			
CCCc1c2c([nH]c(=O)c1C)C(=O)c1[nH]c(=O)c(C)c(CCC)c1C2=O [Diazaquinomycin A]					goods activity against Gram positive bacteria	capacity to inhibit thymidilate synthetase
CC(=O)c1cc2c([nH]c1=O)C(=O)c1ncc(C)cc1C2=O [(I-d)]	0.25 (≈ 0.886 µM)	1 (≈ 3.54 µM)	1 (≈ 3.54 µM)	0.25 (≈ 0.886 µM)		
Cc1cnc2c(c1)C(=O)c1cc(-c3ccccc3)c(=O)[nH]c1C2=O [(I-j), 6-methyl-3-phenyl-1H-1,8-diazaanthracen-2,9,10-trione]	5 (≈ 15.8 µM)	10 (≈ 31.6 µM)	2.5 (≈ 7.9 µM)	> 10		
O=C1c2cc(F)cnc2C(=O)c2ncc(F)cc21 [(I-i), 3,6-difluoro-1,8-diazaanthracen-9,10-dione]	0.1 (≈ 0.406 µM)	0.1 (≈ 0.406 µM)	0.025 (≈ 0.102 µM)	0.025 (≈ 0.102 µM)		
O=C1c2ccccc2C(=O)c2ncc(F)cc21 [(I-l), 3-fluoro-1-azaanthracen-9,10-dione]	0.05 (≈ 0.22 µM)	0.25 (≈ 1.1 µM)	0.25 (≈ 1.1 µM)	0.05 (≈ 0.22 µM)		

Further lines, with some results ahead:

IC50 (A-549) [µg/mL]	IC50 (HT-29) [µg/mL]	SMILES	IC50 (P-388) [µg/mL]	IC50 (MEL-28) [µg/mL]	activity against Gram positive bacteria (Gram positive bacteria)	capacity to inhibit thymidilate synthetase (thymidilate synthetase)
0.02 (≈ 0.0706 µM)	0.02 (≈ 0.0706 µM)	Cc1cc(=O)[nH]c2c1C(=O)c1cc(N(C)C)cnc1C2=O [(I-f), 6-dimethylamino-4-methyl-1H-1,8-diazaanthracen-2,9,10-trione]	0.02 (≈ 0.0706 µM)	0.02 (≈ 0.0706 µM)		
0.025 (≈ 0.0879 µM)	0.1 (≈ 0.352 µM)	CCc1cc2c([nH]c1=O)C(=O)c1[nH]c(=O)cc(C)c1C2=O [(I-c)]	0.1 (≈ 0.352 µM)	0.1 (≈ 0.352 µM)		
0.05 (≈ 0.185 µM)	0.05 (≈ 0.185 µM)	Cc1cc(=O)[nH]c2c1C(=O)c1cc(C)c(=O)[nH]c1C2=O [(I-h), 3,5-dimethyl-1,8-dihydro-1,8-diazaanthracen-2,7,9,10-tetraone]	0.05 (≈ 0.185 µM)	0.025 (≈ 0.0925 µM)		
0.02 (≈ 0.0775 µM)	0.05 (≈ 0.194 µM)	Cc1cc(=O)[nH]c2c1C(=O)c1cc(F)cnc1C2=O [(I-e), 6-fluoro-4-methyl-1H,1,8-diazaanthracen-2,9,10-trione]	0.005 (≈ 0.0194 µM)	0.05 (≈ 0.194 µM)		
